Data published in patent publication US20120035125A1, “FULVIC ACID IN COMBINATION WITH FLUCONAZOLE OR AMPHOTERICIN B FOR THE TREATMENT OF FUNGAL INFECTIONS” (Natracine UK Limited, priority 2009, published 2012).
≈ marks a conversion by molar mass, not a printed value. Read-outs that look alike come from different tables or passages of the source.

How the values were obtained:
Type in all cases: cell-based
[1] = tested on: Candida albicans; experiment: In vitro susceptibility, fluconazole and CHD-FA, preliminary experiment (5 clinical isolates); conditions: read-out: Minimum Inhibitory Concentrations of Fluconazole
Procedure: (§1) Each culture was grown on Sabouraud agar at 37° C. for 48 h to ensure purity.
Clinical Microbiology and Infection 9:1-VIII.)
a) All yeasts were cultured in ambient air at 35-37° C. on recovery medium (Sabouraud dextrose agar) for 18-24 h before testing.
b) The inoculum was prepared by picking five distinct colonies from 18 to 24 h cultures and suspending them in 5 mL of sterile distilled water.
c) The inoculum was completely suspended by vigorous shaking on a vortex mixer for 15 s. The cell density was adjusted to the density of a 0.5 McFarland standard by adding sterile distilled water and measuring absorbance in a spectrophotometer at a wavelength of 530 nm. This gave a yeast suspension of 1-5×10^6 cfu/mL. A working suspension was prepared by a further dilution of 1 in 10 further in 4×RPMI to give […] (The RPMI medium used in the plates was prepared at 4×the final strength to allow for a 75% dilution once the inoculum and diluted CHD-FA was added).
(§2) Sterile plastic, disposable, microtitration plates with 96 flat-bottom wells were used.
(§3) a) Column 1 of the microtitration tray was filled with 100 μL of sterile water containing four times the final drug concentration (512 mg/L fluconazole).
(§4) b) Columns 2-12 were filled with 50 μL of distilled water
(§5) c) 50 μL amounts were taken from wells in column 1 and diluted two-fold by transferring them to column 2 with a multichannel pipette (±2% coefficient of variation). 50 μL samples were then removed from column 2 and transferred to column 3, and so on through to column 10. The last 50 μL of diluted drug is then discarded. Thus, each well in columns 1-10 will contain 50 μL of water containing four times the final antifungal drug concentrations.
Stock solutions of CHD-FA were produced containing 4%, 2%, 1%, 0.5% and 0.25% of the native compound. 100 μL of the diluted CHD-FA was added to microtitration trays in so that row A contains a final dilution of 2% row B, 1%, row C 0.5%, row D 0.25% row E 0.125% and row F diluent only.
50 μL of the diluted Candida albicans suspension in 4×RPMI was added to all cells. This produces a well containing 200 μL final volume (made up of 50 μL diluted fluconazole, 100 μL diluted CHD-FA or diluent, 50 μL of 4×RPMI containing Candida albicans)
(§6) All plates were incubated at 37° C. in air in a darkened incubator.
(§7) Plates were read visually with the endpoint taken as the lowest concentration of drug that inhibited growth by 50% of that of the drug free control.
The pH of CHD-FA was adjusted to pH7.0 using 10M NaOH solution (the ideal pH for fluconazole activity). […] Susceptibility assays were repeated as above.

[2] = tested on: Candida parapsilosis; experiment: In vitro susceptibility, fluconazole and CHD-FA, main experiment; conditions: Lodderomyces parapsilosis, read-out: Fluconazole MIC (mg/L) alone
Procedure: as §2, §3, §4, §5
(§8) Stock solutions of CHD-FA were produced containing 4% and 2% (also 1% and 0.5% for Candida parapsilosis and Candida krusei). 100 μL of the diluted CHD-FA was added to microtitration trays in so that rows contain final dilutions of: • For Candida albicans and tropicalis: 1st row of pair 0.5% CHD-FA, 2nd row of pair solvent only • For Candida glabrata: 1st row of triplet 1% CHD-FA, 2nd row of triplet 0.5% CHD-FA, 3rd row of triplet solvent only • For Candida parapsilosis and Candida krusei rows included 2%, 1%, 0.5%, 0.25 and 0.125% CHD-FA and a row of solvent only.
(§9) All the above concentrations were mixed with fixed concentrations of fluconazole at 128, 32, 8, 2, 0.5 mg/L and solvent for synergy/antagonism assessment.
(§10) 50 μL of the diluted Candida spp suspension in 4×RPMI was added to all wells. This produces a well containing 200 μL final volume (made up of 50 μL diluted fluconazole, 100 μL diluted CHD-FA or diluent, 50 μL of 4×RPMI containing Candida)
as §6, §7

[3] = tested on: Candida krusei; experiment: as above
Procedure: as §2, §3, §4, §5, §8, §9, §10, §6, §7

[4] = tested on: Candida tropicalis; experiment: as above
Procedure: as §1, §2, §3, §4, §5, §8, §9, §10, §6, §7

[5] = tested on: Candida albicans; experiment: as above
Procedure: as §1, §2, §3, §4, §5, §8, §9, §10, §6, §7

[6] = tested on: Candida glabrata; experiment: as above
Procedure: as §1, §2, §3, §4, §5, §8, §9, §10, §6, §7

SMILES: OC(Cn1cncn1)(Cn1cncn1)c1ccc(F)cc1F [Fluconazole, fluconazole]
- MIC ([1]; Candida Strain 1, Solvent (no CHD-FA)): 128 µg/mL (≈ 418 µM)
- MIC ([1]; Candida Strain 2, Solvent (no CHD-FA)): 16 µg/mL (≈ 52.2 µM)
- MIC ([1]; Candida Strain 3, Solvent (no CHD-FA)): 16 µg/mL (≈ 52.2 µM)
- MIC ([1]; Candida Strain 4, Solvent (no CHD-FA)): 32 µg/mL (≈ 104 µM)
- MIC ([1]; Candida Strain 5, Solvent (no CHD-FA)): 16 µg/mL (≈ 52.2 µM)
- MIC ([2]; C. parapsilosis isolate 1): 8 mg/L
- MIC ([2]; C. parapsilosis isolate 2): 2 mg/L
- MIC ([2]; C. parapsilosis isolate 3): 8 mg/L
- MIC ([2]; C. parapsilosis isolate 4): 8 mg/L
- MIC ([2]; C. parapsilosis isolate 5): 8 mg/L
- Fluconazole MIC (mg/L) alone ([3]; C. krusei isolate 1): 32 mg/L
- Fluconazole MIC (mg/L) alone ([3]; C. krusei isolate 2): 32 mg/L
- Fluconazole MIC (mg/L) alone ([3]; C. krusei isolate 4): 32 mg/L
- Fluconazole MIC (mg/L) alone ([3]; C. krusei isolate 5): 32 mg/L
- MIC ([3]; Pichia kudriavzevii, C. krusei isolate 3, read-out: Fluconazole MIC (mg/L) alone): 32 mg/L
- MIC ([4]; C. tropicalis isolate 1, read-out: Fluconazole MIC (mg/L) alone): 16 mg/L
- MIC ([4]; C. tropicalis isolate 2, read-out: Fluconazole MIC (mg/L) alone): > 64 mg/L
- MIC ([4]; C. tropicalis isolate 3, read-out: Fluconazole MIC (mg/L) alone): 16 mg/L
- MIC ([4]; C. tropicalis isolate 4, read-out: Fluconazole MIC (mg/L) alone): 16 mg/L
- MIC ([5]; C. albicans isolate 1, read-out: Fluconazole MIC (mg/L) alone): 128 mg/L
- MIC ([5]; C. albicans isolate 2, read-out: Fluconazole MIC (mg/L) alone): 8 mg/L
- MIC ([5]; C. albicans isolate 3, read-out: Fluconazole MIC (mg/L) alone): 16 mg/L
- MIC ([5]; C. albicans isolate 4, read-out: Fluconazole MIC (mg/L) alone): 4 mg/L
- MIC ([5]; C. albicans isolate 5, read-out: Fluconazole MIC (mg/L) alone): 128 mg/L
- MIC ([5]; C. albicans isolate 6, read-out: Fluconazole MIC (mg/L) alone): > 128 mg/L
- MIC ([5]; C. albicans isolate 7, read-out: Fluconazole MIC (mg/L) alone): 128 mg/L
- MIC ([5]; C. albicans isolate 8, read-out: Fluconazole MIC (mg/L) alone): 128 mg/L
- MIC ([5]; C. albicans isolate 9, read-out: Fluconazole MIC (mg/L) alone): 64 mg/L
- MIC ([5]; C. albicans isolate 10, read-out: Fluconazole MIC (mg/L) alone): 128 mg/L
- MIC ([5]; C. albicans isolate 11, read-out: Fluconazole MIC (mg/L) alone): 0.5 mg/L
- MIC ([5]; C. albicans isolate 12, read-out: Fluconazole MIC (mg/L) alone): 64 mg/L
- MIC ([5]; C. albicans isolate 13, read-out: Fluconazole MIC (mg/L) alone): 0.5 mg/L
- MIC ([5]; C. albicans isolate 14, read-out: Fluconazole MIC (mg/L) alone): 32 mg/L
- MIC ([5]; C. albicans isolate 15, read-out: Fluconazole MIC (mg/L) alone): 2 mg/L
- MIC ([5]; C. albicans isolate 16, read-out: Fluconazole MIC (mg/L) alone): 64 mg/L
- MIC ([5]; C. albicans isolate 17, read-out: Fluconazole MIC (mg/L) alone): > 128 mg/L
- MIC ([5]; C. albicans isolate 18, read-out: Fluconazole MIC (mg/L) alone): > 128 mg/L
- MIC ([5]; C. albicans isolate 19, read-out: Fluconazole MIC (mg/L) alone): 0.5 mg/L
- MIC ([5]; C. albicans isolate 20, read-out: Fluconazole MIC (mg/L) alone): > 128 mg/L
- MIC ([5]; C. albicans isolate 21, read-out: Fluconazole MIC (mg/L) alone): 4 mg/L
- MIC ([5]; C. albicans isolate 22, read-out: Fluconazole MIC (mg/L) alone): 2 mg/L
- MIC ([5]; C. albicans isolate 23, read-out: Fluconazole MIC (mg/L) alone): 1 mg/L
- MIC ([5]; C. albicans isolate 24, read-out: Fluconazole MIC (mg/L) alone): 1 mg/L
- MIC ([5]; C. albicans isolate 25, read-out: Fluconazole MIC (mg/L) alone): > 128 mg/L
- Fluconazole MIC (mg/L) alone ([6]; C. glabrata isolate 1): >128 mg/L
- Fluconazole MIC (mg/L) alone ([6]; C. glabrata isolate 2): >128 mg/L
- Fluconazole MIC (mg/L) alone ([6]; C. glabrata isolate 3): >128 mg/L
- Fluconazole MIC (mg/L) alone ([6]; C. glabrata isolate 5): >128 mg/L
- Fluconazole MIC (mg/L) alone ([6]; C. glabrata isolate 6): >128 mg/L
- Fluconazole MIC (mg/L) alone ([6]; C. glabrata isolate 7): >128 mg/L
- Fluconazole MIC (mg/L) alone ([6]; C. glabrata isolate 8): >128 mg/L
- Fluconazole MIC (mg/L) alone ([6]; C. glabrata isolate 9): >128 mg/L
- Fluconazole MIC (mg/L) alone ([6]; C. glabrata isolate 10): >128 mg/L
- Fluconazole MIC (mg/L) alone ([6]; C. glabrata isolate 11): >128 mg/L
- MIC ([6]; Nakaseomyces glabratus, C. glabrata isolate 4, read-out: Fluconazole MIC (mg/L) alone): > 128 mg/L
